Key:
TDO (A172) = target: T1, TDO (A172) (Homo sapiens, UniProt P48775); test: A172 Kynurenine cell based assay; conditions: A172 human glioblastoma cells expressing TDO; kynurenine production, 48 hours
T1 construct: This assay utilised cancer cells which expressed either TDO (A172) or IDO (SKOV3); endogenous in cells; host or cells: A172 (human glioblastoma)
Description: (§1) Exemplary compounds of the invention were prepared, and tested to determine their effect as TDO and/or IDO inhibitors. Two different assays were employed: 1. a cell-based assay for detecting the effect of test compounds on kynurenine production in two different cancer cell types. This assay utilised cancer cells which expressed either TDO (A172) or IDO (SKOV3) and as such was used as a means of testing compound activity at these two enzymes in a cell-based context. 2. a TDO and IDO biochemical coupled assay which utilised recombinantly produced and purified TDO and IDO enzymes in combination with the enzyme formamidase. This coupled enzyme system allowed conversion of N-formylkynurenine produced by TDO or IDO activity to kynurenine which was then quantified by fluorescence following addition of Erhlich's Reagent The protocols for these are set out below.
(§2) Cell Based Assay for Detection of Kynurenine Produced by TDO and/or IDO
(§3) A172 (human glioblastoma) and SKOV3 (human ovarian adenocarcinoma) cells were seeded in a 96 well plate at 30,000 or 40,000 cells per well respectively in phenol red-free RPMI supplemented with 10% FCS, 2 mM L-glutamine and 500 µM L-tryptophan. IDO expression was induced in the SKOV3 cells by the addition of 500 ng/ml IFN-γ. Cells were incubated at 37° C. with or without the addition of test compound. After 48 hours, the cells were removed by centrifugation and Erhlich's reagent was added to the supernatant. The Erhlich's reagent was incubated for 5 minutes before the absorbance was read at 490 nm.

Recombinant human TDO = Recombinant human TDO (Homo sapiens, UniProt P48775); test: hTDO biochemical assay (coupled with formamidase); conditions: 330 μM L-tryptophan, coupled with kynurenine formamidase, fluorescence
Sequence of Recombinant human TDO (P48775 whole entry): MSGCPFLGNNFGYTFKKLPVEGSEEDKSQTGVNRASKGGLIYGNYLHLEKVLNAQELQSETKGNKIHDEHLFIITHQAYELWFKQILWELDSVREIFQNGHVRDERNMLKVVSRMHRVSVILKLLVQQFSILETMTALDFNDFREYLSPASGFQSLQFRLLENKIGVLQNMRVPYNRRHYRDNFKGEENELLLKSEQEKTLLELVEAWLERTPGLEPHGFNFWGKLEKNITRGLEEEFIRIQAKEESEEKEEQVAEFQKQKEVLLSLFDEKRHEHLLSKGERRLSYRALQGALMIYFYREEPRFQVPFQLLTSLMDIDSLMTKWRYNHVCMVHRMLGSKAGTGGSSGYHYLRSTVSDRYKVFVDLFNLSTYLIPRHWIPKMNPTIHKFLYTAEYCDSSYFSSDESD
Description: as §1
(§4) TDO and IDO Biochemical Coupled Assay
(§5) Recombinant human IDO or TDO was incubated in 50 mM KPO4 (pH 7.0), 0.5 mM EGTA, 0.5 mM EDTA, 0.05% Triton™ X100, 20 mM ascorbate, […] methylene blue, 500 U/ml catalase, 50 μg/ml KynB (kynurenine formamidase). TDO assays were carried out in the presence of 330 μM L-tryptophan, while IDO assays had the addition of 45 µM L-tryptophan. After incubation for 17 minutes at room temperature the reactions were stopped by the addition of Erhlich's reagent and incubated at room temperature for 5 minutes before the fluorescence was read (Ex475, Em530).

Recombinant human IDO = Recombinant human IDO (Homo sapiens, UniProt P14902); test: hIDO biochemical assay (coupled with formamidase); conditions: coupled with kynurenine formamidase, fluorescence
Sequence of Recombinant human IDO (P14902 whole entry): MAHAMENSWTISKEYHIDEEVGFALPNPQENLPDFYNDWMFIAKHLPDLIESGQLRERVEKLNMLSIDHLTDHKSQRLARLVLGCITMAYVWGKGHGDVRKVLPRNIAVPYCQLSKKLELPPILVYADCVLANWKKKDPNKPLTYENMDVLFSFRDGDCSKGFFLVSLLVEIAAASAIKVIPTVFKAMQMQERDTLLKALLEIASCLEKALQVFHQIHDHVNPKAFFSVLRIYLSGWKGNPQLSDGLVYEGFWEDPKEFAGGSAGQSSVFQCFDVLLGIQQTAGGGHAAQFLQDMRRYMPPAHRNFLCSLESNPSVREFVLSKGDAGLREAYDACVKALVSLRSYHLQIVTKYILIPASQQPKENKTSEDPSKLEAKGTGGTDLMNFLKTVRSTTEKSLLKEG
Description: as §1, §4, §5

IDO (SKOV3) = target: T2, IDO (SKOV3) (Homo sapiens, UniProt P14902); test: SKOV3 Kynurenine cell based assay; conditions: SKOV3 human ovarian adenocarcinoma cells, IDO induced by IFN-γ; kynurenine production, 48 hours
T2 construct: IDO expression was induced in the SKOV3 cells by the addition of 500 ng/ml IFN-γ; endogenous in cells; host or cells: SKOV3 (human ovarian adenocarcinoma), IFN-γ induced
T2 sequence (P14902 whole entry): as above
Description: as §1, §2
as §3, with “supernatant.” for “supernatant. The Erhlich's reagent was incubated for 5 minutes before the absorbance was read at 490 nm.”

T1 sequence (P48775 whole entry): as the sequence (P48775 whole entry) above

| A172 Kynurenine cell based assay pIC50 (TDO (A172)) | hTDO biochemical assay pIC50 (Recombinant human TDO) | hIDO biochemical assay pIC50 (Recombinant human IDO) | SKOV3 Kynurenine cell based assay pIC50 (IDO (SKOV3)) | SMILES |
| --- | --- | --- | --- | --- |
| + (+ = pIC50 4.00-4.49) | +/− (+/− = pIC50 < 4.00) | +++ (+++ = pIC50 ≥ 5.50) | ++ (++ = pIC50 4.50-5.49) | O=S(=O)(Nc1oncc1-c1ccccc1)c1ccccc1 [Compound 26] |
| ++ (++ = pIC50 4.50-5.49) | + (+ = pIC50 4.00-4.49) | + (+ = pIC50 4.00-4.49) | + (+ = pIC50 4.00-4.49) | CC(=O)Nc1oncc1-c1ccccc1 [Compound 17] |

The next lines start with the compound.

| SMILES | A172 Kynurenine cell based assay pIC50 (TDO (A172)) | hTDO biochemical assay pIC50 (Recombinant human TDO) | hIDO biochemical assay pIC50 (Recombinant human IDO) | SKOV3 Kynurenine cell based assay pIC50 (IDO (SKOV3)) |
| --- | --- | --- | --- | --- |
| CC(N)C(=O)Nc1oncc1-c1ccccc1 (centres unmarked) [Compound 81] | +++ (+++ = pIC50 ≥ 5.50) | +/− (+/− = pIC50 < 4.00) | + (+ = pIC50 4.00-4.49) | ++ (++ = pIC50 4.50-5.49) |
| CC(O)C(=O)Nc1oncc1-c1ccccc1 (centres unmarked) [Compound 75] | +++ (+++ = pIC50 ≥ 5.50) | ++ (++ = pIC50 4.50-5.49) | ++ (++ = pIC50 4.50-5.49) | + (+ = pIC50 4.00-4.49) |
| O=C(CO)Nc1oncc1-c1ccccc1 [Compound 63] | +++ (+++ = pIC50 ≥ 5.50) | +/− (+/− = pIC50 < 4.00) | + (+ = pIC50 4.00-4.49) | ++ (++ = pIC50 4.50-5.49) |

Source: patent US10047074B2, “Pharmaceutical compound” (IOmet Pharma Ltd., priority 2014, dated 2018)
